According to patent US8273775B2, “Non-steroidal brassinosteroid mimetic” (priority 2006, dated 2012):

System: gene expression in Col-0 seedling shoots
Test: Microarray analysis (ATH1 Affymetrix) after BL or abrasin treatment
Assay type: in vivo, Arabidopsis
Description: FIG. 14: Clustering of gene expression profiles by QT-clust analysis. Clusters illustrating the major patterns of the data sets. Points: BIK-30: 30 μM abrasin 30 min; BL-30: 1 μM brassinolide 30 min; DMSO-30: control DMSO 30 min; BIK-120: 30 μM abrasin 120 min; BL-120: 1 μM brassinolide 120 min; DMSO-120: control DMSO 120 min.
Col-0 seeds were germinated vertically on ½ MS medium for 7 days under 16 h light/8 h dark cycles. The seedlings were overlaid with liquid ½ MS medium containing 1 μM brassinolide (BL, Fuji Chemical Industries, Ltd., Toyama, Japan), 30 μM abrasin (BIK, ChemBridge Corporation) and DMSO and treated for 30 and 120 min. The shoot parts were collected for RNA isolation. All sampling points were performed in three independent experiments. RNA was extracted using RNeasy kit (Qiagene). […] total RNA per array was used to hybridise the ATH1 Affymetrix Arabidopsis arrays according to standard procedure. The overrepresentation analyses were performed using BiNGO software (Maere et al., 2005).
We performed a microarray analysis using the Arabidopsis whole genome chip (Affymetix) to determine whether abrasin activated the expression of BR-inducible genes at transcriptional level. Wild-type Col-0 seedlings were exposed to 1 μM BL, 30 μM ABRASIN and DMSO (mock-treatment) for two time points (30 min and 120 min) and the shoot parts were collected for RNA isolation. The analysis of the variance of the normalized gene expression data took in account the variability parameters affecting the expression level: type of hormone treatment, duration of treatment and the interaction between these two.

## O=C(O)CCC(=O)Nc1ccc(Br)cn1 [abrasin, 4-[(5-bromo-2-pyridinyl)amino]-4-oxobutanoic acid]
30 min, 265877_at, Cluster 6
  Fold-change of gene AT2G42380 (bZIP transcription factor family protein): 1.65
30 min, 266124_at, Cluster 8
  Fold-change of gene AT2G45080 (cyclin family protein): 0.77
120 min
  Fold-change AT1G04330 expressed protein: 4.41
  Fold-change AT1G05470 endonuclease/exonuclease/phosphatase family protein: 2.59
  Fold-change AT1G06520 Encodes a membrane associated mitochondrial localized protein: 2.28
  Fold-change AT1G06570 4-hydroxyphenylpyruvate dioxygenase (HPD): 0.29
  Fold-change AT1G10550 xyloglucan:xyloglucosyl transferase: 1.66
  Fold-change AT1G12710 F-box family protein: 1.41
  Fold-change AT1G12750 rhomboid family protein: 1.60
  Fold-change AT1G14130 2-oxoglutarate-dependent dioxygenase: 2.47
  Fold-change AT1G14700 purple acid phosphatase: 0.47
  Fold-change AT1G16640 transcriptional factor B3 family protein: 2.20
  Fold-change AT1G17230 leucine-rich repeat family protein: 0.22
  Fold-change AT1G18020; AT1G17990 [AT1G18020, 12-oxophytodienoate reductase,: 1.78
  Fold-change AT1G19320 pathogenesis-related thaumatin family protein: 0.50
  Fold-change AT1G20350 mitochondrial import inner membrane translocase subunit: 2.67
  Fold-change AT1G21050 expressed protein: 0.14
  Fold-change AT1G21760 F-box family protein: 0.46
  Fold-change AT1G22360 UDP-glucoronosyl/UDP-glucosyl transferase family protein: 0.32
  Fold-change AT1G23080 auxin efflux carrier protein (PIN7): 0.33
  Fold-change AT1G26800 zinc finger (C3HC4-type RING finger) family protein,: 4.39
  Fold-change AT1G27730 zinc finger (C2H2 type) family protein: 1.06
  Fold-change AT1G28130 encodes an IAA-amido synthase: 0.40
  Fold-change AT1G28190 expressed protein: 1.65
  Fold-change AT1G28480 glutaredoxin family protein: 3.97
  Fold-change AT1G31040 zinc-binding protein-related: 4.37
  Fold-change AT1G31310 hydroxyproline-rich glycoprotein family protein: 2.45
  Fold-change AT1G31770 ABC transporter family protein: 0.50
  Fold-change AT1G32190 expressed protein: 0.07
  Fold-change AT1G32690 expressed protein: 0.26
  Fold-change AT1G36940 expressed protein: 0.32
  Fold-change AT1G49780 U-box domain-containing protein: 0.56
  Fold-change AT1G53870; AT1G53890 [AT1G53870, expressed protein: 0.51
  Fold-change AT1G54050 17.4 kDa class III heat shock protein (HSP17.4-CIII): 2.86
  Fold-change AT1G54200 expressed protein: 2.19
  Fold-change AT1G55920 serine O-acetyltransferase: 2.16
  Fold-change AT1G57560 myb family transcription factor (MYB50): 2.65
  Fold-change AT1G59590 expressed protein: 2.08
  Fold-change AT1G59660 nucleoporin family proteinmily: 2.94
  Fold-change AT1G62300 WRKY family transcription factor: 0.71
  Fold-change AT1G63050 membrane bound O-acyl transferase (MBOAT) family protein: 0.27
  Fold-change AT1G66160 U-box domain-containing protein,: 1.91
  Fold-change AT1G66890 expressed protein: 0.14
  Fold-change AT1G68330 expressed protein: 2.78
  Fold-change AT1G68810 basic helix-loop-helix (bHLH) family protein: 0.41
  Fold-change AT1G69160 expressed protein: 0.33
  Fold-change AT1G70990 proline-rich family protein: 3.50
  Fold-change AT1G71030 Encodes a putative myb family transcription factor: 0.46
  Fold-change AT1G72060 expressed protein: 5.97
  Fold-change AT1G72180 leucine-rich repeat transmembrane protein kinase: 0.11
  Fold-change AT1G72800 nuM1-related, contains: 2.15
  Fold-change AT1G75270 dehydroascorbate reductase: 2.62
  Fold-change AT1G75500 nodulin MtN21 family protein: 0.37
  Fold-change AT1G76240 expressed protein,: 0.07
  Fold-change AT1G76410 zinc finger (C3HC4-type RING finger): 0.16
  Fold-change AT1G79110 expressed protein: 0.45
  Fold-change AT1G79630 protein phosphatase 2C family protein: 0.35
  Fold-change AT1G80440 kelch repeat-containing F-box family protein: 2.89
  Fold-change AT2G01300 expressed protein: 3.12
  Fold-change AT2G01990 expressed protein,: 2.56
  Fold-change AT2G04240 zinc finger (C3HC4-type RING finger) family protein: 1.72
  Fold-change AT2G05540 glycine-rich protein: 0.54
  Fold-change AT2G12290; AT4G19700 [AT2G12290, expressed protein]; [AT4G19700, expressed protein]: 0.53
  Fold-change AT2G18010 auxin-responsive family protein (SAUR10): 3.94
  Fold-change AT2G19800 expressed protein: 2.22
  Fold-change AT2G22860 phytosulfokines 2 (PSK2): 0.19
  Fold-change AT2G23180 cytochrome P450, putative: 0.36
  Fold-change AT2G23320 WRKY family transcription factor: 1.19
  Fold-change AT2G26530 expressed protein: 1.99
  Fold-change AT2G26710 cytochrome p450 family (BAS1): 2.26
  Fold-change AT2G28510 Dof-type zinc finger domain-containing protein: 1.19
  Fold-change AT2G29340 short-chain dehydrogenase/reductase (SDR) family protein: 3.73
  Fold-change AT2G29990 pyridine nucleotide-disulphide oxidoreductase family protein: 1.38
  Fold-change AT2G30070 potassium transporter (KUP1): 0.22
  Fold-change AT2G31230 encodes a member of the ERF (ethylene response factor): 3.17
  Fold-change AT2G34650 protein kinase PINOID (PID): 2.52
  Fold-change AT2G36220 expressed protein: 2.76
  Fold-change AT2G37590 Dof-type zinc finger domain-containing protein: 5.81
  Fold-change AT2G38470 WRKY family transcription factor: 1.34
  Fold-change AT2G39710 aspartyl protease family protein: 2.52
  Fold-change AT2G40340; AT2G40350 [AT2G40340, encodes a member of the DREB subfamily A-2 of ERF/AP2: 3.20
  Fold-change AT2G41250 haloacid dehalogenase-like hydrolase family protein: 0.33
  Fold-change AT2G41640 expressed protein: 2.53
  Fold-change AT2G42280 basic helix-loop-helix (bHLH) family protein: 0.28
  Fold-change AT2G43060 expressed protein, similar to cDNA bHLH transcription factor: 0.25
  Fold-change AT2G43280 far-red impaired responsive family protein: 0.48
  Fold-change AT2G43290 calmodulin-like protein (MSS3): 1.45
  Fold-change AT2G44130 kelch repeat-containing F-box family protein: 7.72
  Fold-change AT2G44500 expressed protein: 2.19
  Fold-change AT2G45210 auxin-responsive protein-related: 0.24
  Fold-change AT2G45680 TCP family transcription factor: 0.46
  Fold-change AT2G46225 Encodes a subunit of the WAVE complex: 0.58
  Fold-change AT2G47440 DNAJ heat shock N-terminal domain-containing protein: 1.64
  Fold-change AT3G04210 disease resistance protein (TIR-NBS class), putative,: 3.17
  Fold-change AT3G09920 phosphatidylinositol-4-phosphate 5-kinase family protein: 1.07
  Fold-change AT3G12920 expressed protein: 0.31
  Fold-change AT3G13040 myb family transcription factor: 0.48
  Fold-change AT3G13510 expressed protein: 0.42
  Fold-change AT3G13980 expressed protein: 0.08
  Fold-change AT3G14370 protein kinase family protein: 2.16
  Fold-change AT3G14560 expressed protein: 0.35
  Fold-change AT3G16570 rapid alkalinization factor (RALF) family protein: 0.36
  Fold-change AT3G17860 expressed protein: 0.45
  Fold-change AT3G18830 polyol/cyclitol/monosaccharide-H+-symporte: 2.60
  Fold-change AT3G19380 U-box domain-containing protein: 0.48
  Fold-change AT3G23030 auxin-responsive protein/indoleacetic acid-induced protein 2 (IAA2): 0.25
  Fold-change AT3G23550 MATE efflux family protein: 0.38
  Fold-change AT3G25710 basic helix-loop-helix (bHLH) family protein: 0.10
  Fold-change AT3G25900 homocysteine S-methyltransferase 1 (HMT-1): 2.67
  Fold-change AT3G26910 hydroxyproline-rich glycoprotein family protein: 1.85
  Fold-change AT3G30180 cytochrome p450 enzyme: 0.06
  Fold-change AT3G46880 expressed protein,: 1.51
  Fold-change AT3G47800 aldose 1-epimerase family protein: 0.57
  Fold-change AT3G48970 copper-binding family protein: 0.38
  Fold-change AT3G49810 U-box domain-containing protein: 1.12
  Fold-change AT3G50650 scarecrow-like transcription factor 7 (SCL7): 2.48
  Fold-change AT3G50660 steroid 22-alpha-hydroxylase (CYP90B1) (DWF4): 0.02
  Fold-change AT3G50750 brassinosteroid signalling positive regulator-related (BEH1): 0.31
  Fold-change AT3G52490 heat shock protein-related: 2.41
  Fold-change AT3G53810 lectin protein kinase: 2.23
  Fold-change AT3G54950 patatin-related,: 0.43
  Fold-change AT3G55120 chalcone-flavanone isomerase: 0.39
  Fold-change AT3G55150 exocyst subunit EXO70 family protein: 0.48
  Fold-change AT3G55840 expressed protein: 6.96
  Fold-change AT3G61460 zinc finger (C3HC4-type RING finger) family protein (BRH1): 0.32
  Fold-change AT3G63300 expressed protein: 2.07
  Fold-change AT4G01680 myb family transcription factor (MYB55): 0.14
  Fold-change AT4G02410 lectin protein kinase family protein: 1.55
  Fold-change AT4G08040 1-aminocyclopropane-1-carboxylate synthase, putative: 0.02
  Fold-change AT4G09460 myb family transcription factor: 3.27
  Fold-change AT4G12390 invertase/pectin methylesterase inhibitor family protein: 0.44
  Fold-change AT4G12410 auxin-responsive family protein: 0.31
  Fold-change AT4G14130 xyloglucan:xyloglucosyl transferase: 0.02
  Fold-change AT4G15975 zinc finger (C3HC4-type RING finger) family protein: 3.28
  Fold-change AT4G16146 expressed protein: 0.49
  Fold-change AT4G16563 aspartyl protease family protein: 1.65
  Fold-change AT4G16670 expressed protein: 0.34
